The text below walks through data of ChEMBL document CHEMBL3507680, “University of Dundee, Gates Library screen for HepG2 cell viability”.

The nature of this data set: Human HepG2 cell viability assay in 384 well format. Format: toxicity, cell-based. Also noted: dose 125 nL, time 70.5 hour; concentration not given beside the values. Particulars: HepG2 cells, read-out: Inhibition.

Regarding `O=C(N1CCOCC1)n1cnc2ccccc21`, the cytotoxicity at 70.5 h is -11.5%.

In the case of `CN(C)CC1(O)CCCN(Cc2cnc(-c3ccco3)nc2)CC1` (stereo not given), the cytotoxicity at 70.5 h was -8.26%.

`FC(F)(F)CCc1ccnc(N2CCN(Cc3ccccn3)CC2)n1`: the cytotoxicity at 70.5 h amounted to 6.16%.

Regarding `CC(C1CCN(Cc2ccccc2OC(F)F)CC1)N1CCOCC1` (stereo not given), the cytotoxicity at 70.5 h is -8.64%.

Take `CC(C)N1CC2(CCC1=O)CCN(C(=O)c1cc(F)ccc1Cl)CC2`: the cytotoxicity at 70.5 h was -5.5%.

Consider `CCCN1CCN(C(=O)c2cccc3cccnc23)[C@H]2CS(=O)(=O)C[C@H]21`, for which the cytotoxicity at 70.5 h amounted to 25.6%.

Take `COC1CCN(S(=O)(=O)N2CCC3(CCCNC3=O)C2)CC1` (stereo not given): the cytotoxicity at 70.5 h was -0.998%.

As to `CC(C)CN1CCC(c2nnc(CN3CCCC3)n2C2CC2)CC1`, the cytotoxicity at 70.5 h was -6.17%.

Take `Cc1ccccc1-n1cc(-c2ccnc(N3CCCC(O)C3)n2)cn1` (stereo not given): the cytotoxicity at 70.5 h was -3.81%.

On to `CCc1ccc(CN2C[C@@H](C(=O)O)[C@H](c3ccccc3OC)C2)o1`, for which the cytotoxicity at 70.5 h was -1.56%.

In the case of `Cc1ccccc1SCC(=O)Nn1cnnc1`, the cytotoxicity at 70.5 h is -9.7%.

With `CC(Cn1cncn1)NCc1ccc2nonc2c1` (stereo not given), the cytotoxicity at 70.5 h is -5.99%.

Take `CC[C@@H](c1ccccc1)n1c(CCN)n[nH]c1=O`: the cytotoxicity at 70.5 h was -5.25%.

For `O=C(CCc1nc(Cl)n[nH]1)N1C[C@H](CO)C[C@H](CN2CCCC2)C1`, the cytotoxicity at 70.5 h is -7.42%.

Turning to `O=C(c1cc(Cl)c[nH]c1=O)N1C[C@@H]2CC[C@H](C1)N(Cc1ccccc1)C2`, the cytotoxicity at 70.5 h amounted to 12.7%.

Consider `CCCc1cc(NCc2cc(C)on2)n2nccc2n1`, for which the cytotoxicity at 70.5 h turned out to be 14.2%.

`COc1cccc([C@@H]2CN(C3CSCCSC3)C[C@H]2C(=O)O)c1`: the cytotoxicity at 70.5 h was -1.5%.

With `CSc1ccc(C(C(=O)O)N2CCOCC2)cc1` (stereo not given), the cytotoxicity at 70.5 h is -11.2%.

For `CSc1ccc(C(C(=O)O)N2CCCC2)cc1` (stereo not given), the cytotoxicity at 70.5 h is -7.97%.

Turning to `CO[C@H]1[C@@H]2CC[C@H]1CN(c1nc(C)nc3ccsc13)C2`, the cytotoxicity at 70.5 h was 19.4%.

`c1cn(Cc2nnc(C3CCN(C4CCCCC4)CC3)n2C2CC2)cn1`: the cytotoxicity at 70.5 h is -1.01%.

For `COc1ccc(C2Nc3ccccc3NC3=C2C(=O)NC3)cc1OC` (stereo not given), the cytotoxicity at 70.5 h is -7.99%.

On to `CCN(Cc1cc(Cl)c(O)c(OC)c1)Cc1nc(COC)no1`, for which the cytotoxicity at 70.5 h is -4.93%.

Consider `CC(=O)c1ccc(F)cc1-c1cc(NCCO)nc2[nH]ccc12`, for which the cytotoxicity at 70.5 h is -0.208%.

As for `COCC[C@]1(O)CCN(C(=O)C2CCN(C3CCCC3)CC2)C[C@H]1C`, the cytotoxicity at 70.5 h is -5.71%.

Consider `COc1cc(C)ccc1S(=O)(=O)N[C@H]1CN(C(C)=O)C[C@@H]1C1CC1`, for which the cytotoxicity at 70.5 h worked out at 18.1%.

On to `Cc1cc(CN2CCN(C(C)C)C(CCO)C2)[nH]n1` (stereo not given), for which the cytotoxicity at 70.5 h stood at 9.92%.

As to `Cc1ccc(CN2CCN(Cc3nccn3C)[C@H]3CS(=O)(=O)C[C@H]32)o1`, the cytotoxicity at 70.5 h is -6.86%.

In the case of `CC(C)(CNC(=O)c1ccco1)CNC(=O)c1ccco1`, the cytotoxicity at 70.5 h was -1.35%.

On to `CN(Cc1ccsc1)Cc1ccc(C2CCCCO2)o1` (stereo not given), for which the cytotoxicity at 70.5 h was -3.14%.

Turning to `N#CC1CCCN(C(=O)Cn2ncc(N3CCCC3)cc2=O)C1` (stereo not given), the cytotoxicity at 70.5 h was -7.57%.

For `C[C@H](c1ccc(Cl)cc1)n1c(C2CC2)n[nH]c1=O`, the cytotoxicity at 70.5 h was -3.55%.

With `CC(C)=CCN1CCN(Cc2nc3ccccc3[nH]2)[C@H]2CS(=O)(=O)C[C@H]21`, the cytotoxicity at 70.5 h was -8.69%.

On to `Cc1nc(-c2cc(F)c3c(c2)CC(CN)O3)c[nH]1` (stereo not given), for which the cytotoxicity at 70.5 h was 3.79%.

Regarding `CCOCCC(=O)N(Cc1ccncc1)C(C)CC` (stereo not given), the cytotoxicity at 70.5 h is 20.8%.

Turning to `OC1CCCOC12CCN(Cc1nnc(-c3cccnc3)o1)CC2` (stereo not given), the cytotoxicity at 70.5 h was 0.216%.

On to `CNS(=O)(=O)CCn1cc(-c2cc3c(cc2OC)CCC3)nn1`, for which the cytotoxicity at 70.5 h is -7.97%.

Turning to `CN(C)Cc1ccc(C2CCCCN2C(=O)c2cc(=O)[nH]c(=O)[nH]2)cc1` (stereo not given), the cytotoxicity at 70.5 h is -5.8%.

`CS(=O)(=O)c1cnc(CC2CC2)nc1C1CCCNC1` (stereo not given): the cytotoxicity at 70.5 h stood at 19.7%.

On to `CN1CCC2(CCC1=O)CCN(C(=O)Cc1ccc(O)c(F)c1)CC2`, for which the cytotoxicity at 70.5 h amounted to 2.31%.

`CC(=O)c1cc(CN2C[C@@H](N(C)C)[C@H](C(C)C)C2)cs1`: the cytotoxicity at 70.5 h is 8.63%.

Consider `O=C(O)CSc1nnc(-c2ccco2)n1-c1ccccc1C(F)(F)F`, for which the cytotoxicity at 70.5 h is -4.07%.

With `Cc1ccc(Cl)cc1-n1nnnc1C1(N2CCCC2)CCCC1`, the cytotoxicity at 70.5 h is -11.5%.

Turning to `COc1ccccc1N1CCN(CC[C@H](O)c2ccccc2)CC1=O`, the cytotoxicity at 70.5 h was -12%.

Consider `CCN1CC2(CCN(C(=O)C(C)Oc3cccc(Cl)c3)CC2)OC1=O` (stereo not given), for which the cytotoxicity at 70.5 h is -11.6%.

For the compound `O=C(CCc1cc(O)no1)N1CCCC(COc2ccccc2F)C1` (stereo not given), the cytotoxicity at 70.5 h is -20.7%.

Regarding `COCCN(C)C[C@@H]1CN(C(=O)c2ccc(O)c(C)c2)C[C@@H]1CO`, the cytotoxicity at 70.5 h is -2.33%.

For the compound `CSc1ncccc1C(=O)N1C[C@H]2CC[C@@H]1CN(C(C)=O)C2`, the cytotoxicity at 70.5 h is -6.7%.

For `CC1=CC(C)(C)N(CN2C(=O)c3ccccc3C2=O)c2ccc(C)cc21`, the cytotoxicity at 70.5 h was 7.06%.

Regarding `CC1=CC(C)(C)N(CN2C(=O)c3ccccc3C2=O)c2ccccc21`, the cytotoxicity at 70.5 h was 0.789%.

As to `O=C(O)[C@@H]1CN(Cc2c[nH]c(CC3CCCC3)n2)C[C@H]1c1ccccn1`, the cytotoxicity at 70.5 h was determined as 17.2%.

As for `c1cc(-c2cnccn2)cc(-c2ccn(CCN3CCCCC3)n2)c1`, the cytotoxicity at 70.5 h is -7.67%.

Regarding `Nc1ncc(C(=O)N2CCC3(CCCO3)CC2)c(-c2ccccc2)n1`, the cytotoxicity at 70.5 h was -2.3%.

Turning to `Cc1cc(C(=O)N2CCN(C(=O)CC(C)C)[C@@H]3CS(=O)(=O)C[C@@H]32)no1`, the cytotoxicity at 70.5 h was -11.9%.

As for `CC(C)c1nc(CN(C)C(=O)C(O)c2ccc(Cl)cc2)cs1` (stereo not given), the cytotoxicity at 70.5 h was -0.849%.

For `CN(C)CC(Nc1nc(N)nc2c1CCNCC2)c1ccccc1` (stereo not given), the cytotoxicity at 70.5 h was -18.8%.

Consider `CC1(C)Cc2c(cnn2-c2cccc(F)c2)C(NC2CCSCC2)C1` (stereo not given), for which the cytotoxicity at 70.5 h amounted to 9.46%.

As for `CN1CCC(N(C)C[C@H]2CC[C@@H](Cc3ccc4occc4c3)O2)CC1`, the cytotoxicity at 70.5 h amounted to 3.05%.

In the case of `COc1cccc([C@H]2CN(C(=O)c3noc4c3CCCC4)C[C@@H]2N)c1`, the cytotoxicity at 70.5 h was -3.29%.

Take `CC(c1ccncn1)N(C)Cc1cc2cc3c(cc2[nH]c1=O)OCO3` (stereo not given): the cytotoxicity at 70.5 h worked out at 3.45%.

For the compound `CCc1nn(C)c(Cl)c1CN1CCCC2(CC1)CN(C)C(=O)O2` (stereo not given), the cytotoxicity at 70.5 h is -14.9%.

Turning to `Cc1cccnc1CC(C)Nc1nc(N)nc2c1CCNC2` (stereo not given), the cytotoxicity at 70.5 h worked out at 2.93%.

Take `O=C(c1cc(COc2ccc3c(c2)OCO3)[nH]n1)N1CCCCO1`: the cytotoxicity at 70.5 h is 20.1%.

Take `CC[C@@]1(O)CCN(Cc2cc(C3CCCCC3)no2)C[C@H]1O`: the cytotoxicity at 70.5 h was -2.92%.

As to `COc1ccc(OCc2cc(C(=O)N3CCOCC3)n[nH]2)c(Cl)c1`, the cytotoxicity at 70.5 h is -2.87%.

Take `Cc1cc2[nH]c(=O)oc2cc1S(=O)(=O)N1CCCC(N(C)C)CC1` (stereo not given): the cytotoxicity at 70.5 h was -2.95%.

Consider `COc1cccc(Cl)c1C(C(=O)O)N(C)Cc1nnc(C)o1` (stereo not given), for which the cytotoxicity at 70.5 h is 11.6%.

Regarding `Cc1cc(Cl)ccc1C(=O)N1C[C@H](C2CC2)[C@@H](N)C1`, the cytotoxicity at 70.5 h was -1.61%.

Turning to `CCc1nc2c(c(NC3CCC3)n1)CCN(C(=O)CO)CC2`, the cytotoxicity at 70.5 h turned out to be 0.47%.

Take `CCOCc1nc2c(c(NC(CC)c3cccnc3)n1)CCNCC2` (stereo not given): the cytotoxicity at 70.5 h is -3.13%.

On to `Cc1cc2c(c(-c3c[nH]c(C)n3)c1)OC(CN)C2` (stereo not given), for which the cytotoxicity at 70.5 h was 2.12%.

Consider `CN(c1ccc(-c2nc(C3CC3)no2)cn1)C1CCOCC1`, for which the cytotoxicity at 70.5 h was -3.42%.

As for `CC(=O)c1ccc(C(=O)N2C[C@@H]3CC[C@H](C2)N(CC2CCC2)C3)s1`, the cytotoxicity at 70.5 h is -3.03%.

Consider `CN1CCN(Cc2n[nH]c(=O)n2CC2CCCCC2)CC1`, for which the cytotoxicity at 70.5 h was -6.17%.

Regarding `CN(Cc1ccccc1)C1(C(=O)NC(CO)CO)Cc2ccccc2C1`, the cytotoxicity at 70.5 h was determined as 1.88%.

On to `Cc1nc(C)n(CCCn2ccnc2-c2cc3n(n2)CCCNC3)n1`, for which the cytotoxicity at 70.5 h is -11%.

On to `Nc1nc2c(c(=O)[nH]1)CCN(C(=O)c1ccccc1N1CCCC1)C2`, for which the cytotoxicity at 70.5 h amounted to 0.043%.

Turning to `Nc1nc2c(c(NCc3nccs3)n1)CCN(CC1CCCC1)CC2`, the cytotoxicity at 70.5 h is -17.1%.

For the compound `CC(C)n1ccnc1CN1CCOC(CC2CCCCC2)C1` (stereo not given), the cytotoxicity at 70.5 h is 5.36%.

For the compound `CC(C)(C)c1ncc2c(n1)CN(C(=O)C(C)(C)n1cccc1)C2`, the cytotoxicity at 70.5 h is -6.39%.

In the case of `Cc1noc(C)c1CN1C(=O)[C@H]2CC[C@@H]1CN(Cc1nccs1)C2`, the cytotoxicity at 70.5 h was found to be 0.0707%.

For `CN1CCN(C(=O)N2CCCC(c3nccn3CC3CCC3)C2)CC1` (stereo not given), the cytotoxicity at 70.5 h was -15.8%.

`N#Cc1cccc(N2CCC(CO)(CCCc3ccccc3)CC2)n1`: the cytotoxicity at 70.5 h is -4.41%.

As for `Cn1cccc1C(=O)N1CCC2(CCCN(CC3CCC3)C2=O)C1` (stereo not given), the cytotoxicity at 70.5 h was -2.25%.

For the compound `Cc1csc(CN(C)c2cc(C)nc3c(C)c(C)nn23)n1`, the cytotoxicity at 70.5 h was -7.34%.

Regarding `CCc1nc(NC2CCCN(C(=O)C3CC3)C2)c2cnn(C)c2n1` (stereo not given), the cytotoxicity at 70.5 h is -15.4%.

Consider `O=C(O)c1cnc(N2CCC(c3nccn3CC3CC3)CC2)c(Cl)c1`, for which the cytotoxicity at 70.5 h was -8.03%.

For `COc1ccc(Cl)cc1CN(C)C(=O)CN1C(=O)CCC1C` (stereo not given), the cytotoxicity at 70.5 h was -9.27%.

On to `O=C(O)c1ccnc(-c2ccnc(NCCc3cscn3)n2)c1`, for which the cytotoxicity at 70.5 h was -2.9%.

Take `Cc1c(-c2nc3cc(S(=O)(=O)N4CCCC4)ccc3n2C)cnn1C`: the cytotoxicity at 70.5 h was -22.4%.

Turning to `Cc1nn(C)c2ncnc(N3CCCC(OCc4ccccn4)C3)c12` (stereo not given), the cytotoxicity at 70.5 h turned out to be 1.57%.

`CC(CO)CN(Cc1ccccc1)C(=O)c1csc(CN(C)C)n1` (stereo not given): the cytotoxicity at 70.5 h was -3.43%.

In the case of `NC(=O)c1ccc(N2CCN(Cc3c(Cl)cncc3Cl)CC2)nc1`, the cytotoxicity at 70.5 h amounted to 10.8%.

In the case of `Cc1cc(C)n(CC(C)NC2CCN(Cc3cccnc3)CC2)n1` (stereo not given), the cytotoxicity at 70.5 h is -7.19%.

On to `CC1CCCN(c2ccc(C(N)=O)cc2NC(=O)CC2=CCNCC2)C1` (stereo not given), for which the cytotoxicity at 70.5 h is -17.5%.
